This is an account of results in US12378220B2, “WNT signaling pathway inhibitors for treatments of disease” (University of Maryland, Baltimore, priority 2016, dated 2025).

For assay [1], the system named is WiDr, SW620, HT29, HEK_LTV, and T84 cell lines. The assay is described as follows: cell proliferation and growth inhibition assay (CCK-8), cell line panel. It is filed as cell-based, human. The conditions noted are these: 72 h, FIG. 12. Here is the method:
Cell Proliferation and Growth Inhibition Assay. HT-29, HCT-116, WiDr, SW620, SW480, T84, A549, MCF-7, HepG2, Hela cells were cultured in respective growth medium. Cells of log phase were used. 3000-5000 cells/well were seeded in 96-well plates with a 100 μL volume. After 24 h, Compounds were dissolved to […] with DMSO, and a 3-fold serial dilution of the compounds from 5×10^−5 M to […] was performed. 2 μL of compound solution was added to 998 μL of growth medium, the mixture was vortexed sufficiently. 100 μL of the mixture was correspondingly added to the 96-well plate. 2 μL DMSO instead of compound solution was used as the 0% inhibitor control. After coincubation for 72 h, the old medium was removed and 100 μL of 10% CCK-8 in culture medium was added. 2 h later the plates were read in the microplate reader (Bio-Rad) at 450 nm. The data was calculated using Graph Pad Prism version 5.0. The IC50 were fitted using a nonlinear regression model with a sigmoidal dose response.

Assay [2] deals with Wnt/β-catenin pathway. The assay is described as follows: dual-luciferase TCF/LEF reporter assay, LiCl-activated, HEK293 cells. Type of assay: cell-based. Here is the method:
Lithium chloride (LiCl), which has been previously established as an activator of the Wnt/β-catenin pathway through its direct and indirect effects on GSK3β was used for pathway activation. The inhibition of the Wnt/β-catenin pathway by a compound may be determined after its incubation with cells for 24 hours.
The assay provided herein is a dual-luciferase assay to measure Wnt/β-catenin pathway activation using a TCF/LEF responsive reporter construct similar to that described previously (Thorne et al., 2010).
For orientation: In a reporter assay the amount or activity of a reporter protein is the signal.

Setting [3] is: Homo sapiens, HEK293, Table 6, read-out: IC50 (nM) or remaining activity at 1 μM: IC50.
Where [4] appears, read: Homo sapiens, HEK293, 24 h, At 1 μM concentration, remaining Wnt signaling activity, read-out: RLU % (Relative Light Units in reporter gene assays).
The mark [5] stands for this setting: Homo sapiens, HEK293, Table 5, read-out: IC50 (nM) or remaining activity at 1 μM: IC50.
The mark [6] stands for this setting: Homo sapiens, HEK293, Table 3, values in nM, read-out: IC50.
[7] abbreviates: Homo sapiens, HEK293, Table 4, @ 1 μM, read-out: IC50 (nM) or remaining activity at 1 μM: remaining activity.
Where [8] appears, read: Homo sapiens, HEK293, Table 3, values in μM, read-out: IC50.

Where two headings read alike, the source gives them in different places.

With `Cc1c(C(=O)Nc2ccc3ccccc3n2)cnn1C(C)(C)C` [YW2049, 1-(Tert-butyl)-5-methyl-N-(quinolin-2-yl)-1H-pyrazole-4-carboxamide], the growth inhibitory activity result in assay [1] is “micromolar growth inhibitory activity”.
Still for that read-out and setting: the entry for “1-(2-Fluorophenyl)-5-methyl-N-(quinolin-2-yl)-1H-pyrazole-4-carboxamide [YW2035]” is “micromolar growth inhibitory activity”.
As for `Cc1ccc(-n2nnc(C(=O)Nc3ccc4ccccc4n3)c2C)c(C)c1` [Compound 32, 1-(2,4-Dimethylphenyl)-5-methyl-N-(quinolin-2-yl)-1H-1,2,3-triazole-4-carboxamide], the IC50 in assay [2] (setting [3]) was 130 nM.
In the case of `Cc1ccc(-n2nnc(C(=O)NCc3ccccn3)c2C)cc1` [YW1121, 5-Methyl-N-(pyridin-2-ylmethyl)-1-(p-tolyl)-1H-1,2,3-triazole-4-carboxamide], in assay [2] (setting [4]), the activity at 1 µM worked out at 92.1%.
`Cc1ccc(-n2nnc(C(=O)Nc3cc(C)no3)c2C)cc1` [Compound 24, 5-Methyl-N-(3-methylisoxazol-5-yl)-1-(p-tolyl)-1H-1,2,3-triazole-4-carboxamide]: the IC50 in assay [2] (setting [5]) stood at 48000 nM.
Take `Cc1ccc(-n2c(C)cc(C(=O)Nc3nc(-c4ccccc4)cs3)c2C)cc1` [Compound 16, 2,5-dimethyl-N-(4-phenylthiazol-2-yl)-1-(p-tolyl)-1H-pyrrole-3-carboxamide]: the IC50 in assay [2] (Homo sapiens, HEK293, Table 4, LiCl-mediated WNT signaling, read-out: IC50 (nM) or remaining activity at 1 μM: IC50) is 379 nM.
In the case of `Cc1c(C(=O)Nc2ccc3ccccc3n2)nnn1-c1ccccc1C#N` [YW1157, 1-(2-Cyanophenyl)-5-methyl-N-(quinolin-2-yl)-1H-1,2,3-triazole-4-carboxamide], in assay [2] (setting [4]), the activity at 1 µM is 6.5%. In addition, the IC50 in assay [2] (setting [6]) was determined as 76 nM.
With `Cc1c(C(=O)Nc2ccc3ccccc3n2)nnn1-c1cccc(Cl)c1` [Compound 44, 1-(3-Chlorophenyl)-5-methyl-N-(quinolin-2-yl)-1H-1,2,3-triazole-4-carboxamide], in assay [2] (setting [3]), the IC50 worked out at 731 nM.
With `Cc1ccc(-n2c(C)cc(C(=O)Nc3cnccn3)c2C)cc1` [Compound 15, 2,5-Dimethyl-N-(pyrazin-2-yl)-1-(p-tolyl)-1H-pyrrole-3-carboxamide], the activity at 1 µM in assay [2] (setting [7]) was 112%.
For the compound `CCc1c(C(=O)Nc2ccc3ccccc3n2)nnn1-c1ccccc1F` [YW2018, 5-Ethyl-1-(2-fluorophenyl)-N-(quinolin-2-yl)-1H-1,2,3-triazole-4-carboxamide], the activity at 1 µM in assay [2] (setting [4]) came to 2.3%. Besides, the IC50 in assay [2] (setting [6]) came out at 47 nM.
On to `Cc1ccccc1-n1nnc(C(=O)Nc2nc(-c3ccccc3)cs2)c1C` [YW1183, 5-Methyl-N-(4-phenylthiazol-2-yl)-1-(o-tolyl)-1H-1,2,3-triazole-4-carboxamide], for which the activity at 1 µM in assay [2] (setting [4]) was 90.8%. Moreover, the IC50 in assay [2] (setting [8]) turned out to be 22000 nM.
On to `Cc1c(C(=O)Nc2ccc3ccccc3n2)nnn1-c1ccccc1C(N)=O` [Compound 40, 1-(2-Carbamoylphenyl)-5-methyl-N-(quinolin-2-yl)-1H-1,2,3-triazole-4-carboxamide], for which the IC50 in assay [2] (setting [3]) is > 100000 nM.
As for `Cc1c(C(=O)Nc2ccc3ccccc3n2)nnn1-c1ccc(F)cc1[N+](=O)[O-]` [YW1171, 1-(4-Fluoro-2-nitrophenyl)-5-methyl-N-(quinolin-2-yl)-1H-1,2,3-triazole-4-carboxamide], in assay [2] (setting [4]), the activity at 1 µM is 77.8%. For the same compound, the IC50 in assay [2] (setting [8]) was 5000 nM.
For the compound `Cc1c(C(=O)Nc2ccc3ccccc3n2)nnn1-c1ccccc1C#N` [Compound 34, 1-(2-Cyanophenyl)-5-methyl-N-(quinolin-2-yl)-1H-1,2,3-triazole-4-carboxamide], the IC50 in assay [2] (setting [3]) is 76 nM.
For the compound `Cc1ccc(-n2c(C)cc(C(=O)Nc3ccccn3)c2C)cc1` [Compound 14, 2,5-dimethyl-N-(pyridin-2-yl)-1-(p-tolyl)-1H-pyrrole-3-carboxamide], the activity at 1 µM in assay [2] (setting [7]) worked out at 79.8%.
Turning to `Cc1c(C(=O)Nc2ccc3ccccc3n2)nnn1-c1ccccc1C(N)=O` [YW1182, 1-(2-Carbamoylphenyl)-5-methyl-N-(quinolin-2-yl)-1H-1,2,3-triazole-4-carboxamide], the activity at 1 µM in assay [2] (setting [4]) is 89.9%. Further, in assay [2] (setting [8]), the IC50 is > 100000 nM.
In the case of `Cc1c(C(=O)Nc2ccc3ccccc3n2)nnn1-c1ccccc1N1CCOCC1` [Compound 37, 5-Methyl-1-(2-morpholinophenyl)-N-(quinolin-2-yl)-1H-1,2,3-triazole-4-carboxamide], the IC50 in assay [2] (setting [3]) was > 1000 nM.
Take `CC(C)c1c(C(=O)Nc2ccc3ccccc3n2)nnn1-c1ccccc1F` [Compound 46, 1-(2-Fluorophenyl)-5-isopropyl-N-(quinolin-2-yl)-1H-1,2,3-triazole-4-carboxamide]: the IC50 in assay [2] (Table 7, read-out: IC50) was found to be 177 nM.
On to `Cc1ccc(-n2c(C)cc(C(=O)Nc3cnccn3)c2C)cc1` [YW1117-2, 2,5-Dimethyl-N-(pyrazin-2-yl)-1-(p-tolyl)-1H-pyrrole-3-carboxamide], for which, in assay [2] (setting [4]), the activity at 1 µM turned out to be 113%.
As to `Cc1ccc(-n2nnc(C(=O)Nc3cccc(C)n3)c2C)cc1` [Compound 21, 5-Methyl-N-(6-methylpyridin-2-yl)-1-(p-tolyl)-1H-1,2,3-triazole-4-carboxamide], the IC50 in assay [2] (setting [5]) is 273 nM.
For the compound `Cc1ccc(-n2nnc(C(=O)Nc3ccc4ccccc4n3)c2C)c(C)c1` [YW1179, 1-(2,4-Dimethylphenyl)-5-methyl-N-(quinolin-2-yl)-1H-1,2,3-triazole-4-carboxamide], the activity at 1 µM in assay [2] (setting [4]) came out at 10.6%. In addition, the IC50 in assay [2] (setting [6]) came out at 130 nM.
Take `Cc1cccc(-n2nnc(C(=O)Nc3ccc4ccccc4n3)c2C)c1C` [Compound 42, 1-(2,3-Dimethylphenyl)-5-methyl-N-(quinolin-2-yl)-1H-1,2,3-triazole-4-carboxamide]: in assay [2] (setting [3]), the IC50 was 567 nM.
Take `Cc1ccc(-n2nnc(C(=O)Nc3ccc4ccccc4n3)c2C)cc1` [YW1127, 5-Methyl-N-(quinolin-2-yl)-1-(p-tolyl)-1H-1,2,3-triazole-4-carboxamide]: the activity at 1 µM in assay [2] (setting [4]) stood at 56.4%.
On to `Cc1c(C(=O)Nc2ccc3ccccc3n2)nnn1-c1cccc2ccccc12` [YW1151, 5-Methyl-1-(naphthalen-1-yl)-N-(quinolin-2-yl)-1H-1,2,3-triazole-4-carboxamide], for which, in assay [2] (setting [4]), the activity at 1 µM came out at 79.3%. The IC50 in assay [2] (setting [8]) came to 4000 nM.
Regarding `Cc1ccc(-n2c(C)cc(C(=O)Nc3ccccn3)c2C)cc1` [YW1109, 2,5-Dimethyl-N-(pyridin-2-yl)-1-(p-tolyl)-1H-pyrrole-3-carboxamide], the activity at 1 µM in assay [2] (setting [4]) came out at 79.8%.
On to `Cc1c(C(=O)Nc2ccc3ccccc3n2)nnn1-c1ccccc1F` [YW1159, 1-(2-Fluorophenyl)-5-methyl-N-(quinolin-2-yl)-1H-1,2,3-triazole-4-carboxamide], for which the activity at 1 µM in assay [2] (setting [4]) is 1.4%. Further, in assay [2] (setting [6]), the half-inhibitory concentration (IC50) came out at 6.5 nM.
For `Cc1ccc(-n2c(C)cc(C(=O)NCc3ccccc3)c2C)cc1` [Compound 17, N-benzyl-2,5-dimethyl-1-(p-tolyl)-1H-pyrrole-3-carboxamide], the activity at 1 µM in assay [2] (setting [7]) amounted to 93%.
As to `CCc1c(C(=O)Nc2ccc3ccccc3n2)nnn1-c1ccccc1F` [Compound 45, 5-Ethyl-1-(2-fluorophenyl)-N-(quinolin-2-yl)-1H-1,2,3-triazole-4-carboxamide], the IC50 in assay [2] (Table 7, read-out: IC50) was determined as 47 nM.

The IC50 is the concentration that inhibits the measured activity by half.
